The values below come from patent publication US20160159774A1 (Celgene Avilomics Research, Inc., priority 2014, published 2016).

A value given as a limit tells only on which side of the number the result lay.

Assay [1] has as its target T1, activated BTK enzyme (Homo sapiens, UniProt Q06187).
T1 construct: purchased Life Technologies PV3363
Nature of the assay: Omnia assay for potency assessment against BTK. The class given is biochemical. To be noted: BTK inhibition assay; [BTK]=5 nM, [ATP]=40 μM, [Y5-Sox]=10 μM. The text has this:
Omnia Assay Protocol for Potency Assessment Against BTK
The protocol below describes an assay to measure potency of compounds against the activated BTK enzyme. The mechanics of the assay platform are best described by the vendor (Life Technologies, Carlsbad, Calif.) on their website at the following URLs: www.lifetechnologies.com/us/en/home/life-science/drug-discovery/target-and-lead-identification-and-validation/kinasebiology/kinase-activity-assays/omnia-kinase-assays/omnia-kinase-principle.html and tools.lifetechnologies.com/content/sfs/manuals/omnia_kinase_assay_man.pdf
Briefly, 10× stocks of BTK (PV3363) from Life Technologies, 1.13×ATP (AS00lA) and Sox conjugated peptide substrates, Y5-Sox, (KZN305l) were prepared in 1× kinase reaction buffer consisting of 20 mM Tris, pH 7.5, 5 mM MgCl2, 1 mM EGTA, 5 mM (3-glycerophosphate, 5% glycerol (10× stock, KB002A) and 0.2 mM DTT (DS00lA). 5 μL of each enzyme were pre-incubated in a Corning (#3574) 384-well, white, non-binding surface microtiter plate (Corning, N.Y.) for 30 min. at room temperature with a 0.5 μL volume of 50% DMSO or serially diluted compounds prepared in 50% DMSO. Kinase reactions were started with the addition of […] of the ATP/Tyr-Sox peptide substrate Y5 mix and monitored every 71 seconds for 60 minutes at λex360/λem485 in a Synergy4 plate reader from BioTek (Winooski, Vt.). At the conclusion of each assay, progress curves from each well were examined for linear reaction kinetics and fit statistics (R2, 95% confidence interval, absolute sum of squares). Initial velocity (0 minutes to ˜30 minutes) from each reaction was determined from the slope of a plot of relative fluorescence units vs time (minutes) and then plotted against inhibitor concentration to estimate IC50 from log [Inhibitor] vs Response, Variable Slope model in GraphPad Prism from GraphPad Software (San Diego, Calif.).
Reagent conditions for the assay are:
[BTK]=5 nM, [ATP]=40 μM, [Y5-Sox]=10 μM (ATP KMapp˜36 μM).
The compound numbers correspond to the compound numbers in the examples.

Assay [2] deals with T2, BTK in Ramos human Burkitt lymphoma cells (Homo sapiens, UniProt Q06187).
T2 construct: Compounds of this invention were assayed in Ramos human Burkitt lymphoma cells; endogenous in cells; host or cells: Ramos human Burkitt lymphoma cells
Nature of the assay: BTK Ramos cellular assay (BTK occupancy). Type of assay: cell-based. To be noted: concentration producing 50% occupancy of BTK, 1 hour incubation with compound. The method, then: BTK activity in Ramos cells, in the presence of a compound of the invention, can be measured by 3 different methods: 1) inhibition of autophosphorylation of BTK; 2) inhibition of phosphorylation of the immediate BTK surrogate PLCγ2; and 3) BTK occupancy. […] In this instance, BTK occupancy was chosen and is described below.
Compounds of this invention were assayed in Ramos human Burkitt lymphoma cells. Ramos cells were grown in suspension in T175 flasks, spun down, resuspended to a concentration of 2×10^6 cells per mL in serum-free media and incubated for 1 hour. Compound was added to Ramos cells to a final concentration of 500, 166.7, 55.6, 18.5, 6.2, 2.1, and 0.7 nM. Ramos cells were incubated with compound for 1 hour, washed with PBS and lysed in 1004 of BioRad lysis Buffer. Cell lysates were incubated with a biotinylated covalent probe (compound 1-215 disclosed in U.S. published application number 2010/0029610, incorporated by reference in its entirety) at a final concentration of 1 μM in a PBS, 0.05% Tween-20, 1% BSA solution for 1 h at room temperature. Standards and samples were transferred to a streptavidin-coated 96-well ELISA plate and mixed while shaking for 1 h at room temperature. The α-Btk antibody (BD 611116, 1:1000 dilution in PBS+0.05% Tween-20+0.5% BSA) was then added and incubated for 1 h at room temperature. After wash, goat α-mouse-HRP (1:5000 dilution in PBS+0.05% Tween-20+0.5% BSA) was added and incubated for 1 h at room temperature. The ELISA was developed with addition of tetramethyl benzidine (TMB) followed by Stop Solution and read at OD 450 nm. The standard curve (11.7-3000 pg/μL) was generated with human full-length recombinant Btk protein and plotted using a 4 parameter curve fit in Gen5 software. Uninhibited Btk detected from samples was normalized to μg total protein as determined by BCA protein analysis (Pierce Cat. 23225).
The results of this assay show the concentration of compound producing 50% occupancy of BTK. This level of occupancy empirically translates to a level of 50% inhibition of BTK activity (both as measured by autophosphorylation and by phosphorylation of PLCγ2). […] The compound numbers correspond to the compound numbers in the examples.

T1 sequence (Q06187 whole entry): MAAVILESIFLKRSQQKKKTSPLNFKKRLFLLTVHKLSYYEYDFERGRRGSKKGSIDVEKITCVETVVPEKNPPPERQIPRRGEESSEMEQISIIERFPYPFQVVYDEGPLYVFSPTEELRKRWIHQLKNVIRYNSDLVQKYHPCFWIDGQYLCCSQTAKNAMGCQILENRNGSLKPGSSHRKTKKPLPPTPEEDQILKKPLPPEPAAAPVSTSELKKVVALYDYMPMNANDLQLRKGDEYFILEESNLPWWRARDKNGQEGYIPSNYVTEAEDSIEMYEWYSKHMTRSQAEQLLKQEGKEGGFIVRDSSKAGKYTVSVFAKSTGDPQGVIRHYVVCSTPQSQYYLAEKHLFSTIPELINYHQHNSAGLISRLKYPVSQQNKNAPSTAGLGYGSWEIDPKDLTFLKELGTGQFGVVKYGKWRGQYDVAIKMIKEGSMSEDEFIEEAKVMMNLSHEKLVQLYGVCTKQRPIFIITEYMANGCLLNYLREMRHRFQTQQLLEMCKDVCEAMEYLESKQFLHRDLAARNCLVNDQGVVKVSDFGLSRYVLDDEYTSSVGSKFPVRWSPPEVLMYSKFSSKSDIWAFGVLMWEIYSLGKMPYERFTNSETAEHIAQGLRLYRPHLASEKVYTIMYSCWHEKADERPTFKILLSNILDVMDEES
T2 sequence (Q06187 whole entry): as above

As a reminder, the IC50 is the concentration that inhibits the measured activity by half. The term EC50 denotes the concentration that produces a half-maximal response. `C=CC(=O)N1CCC[C@@H](Nc2nc(Nc3ccc4c(c3)CCN(C3CCC3)C4)ncc2F)C1` [Compound I-42, (R)-1-(3-((2-((2-cyclobutyl-1,2,3,4-tetrahydroisoquinolin-6-yl)amino)-5-fluoropyrimidin-4-yl)amino)piperidin-1-yl)prop-2-en-1-one]: the IC50 in assay [1] was less than 0.01 µM. In addition, in assay [2], the EC50 is less than 0.01 µM. In the case of `C=CC(=O)N1CCC[C@@H](Nc2nc(Nc3ccc4c(c3)CN(C3CCN(C)CC3)C4)ncc2F)C1` [Compound I-7, (R)-1-(3-((5-Fluoro-2-((2-(1-methylpiperidin-4-yl)isoindolin-5-yl)amino)-pyrimidin-4-yl)amino)piperidin-1-yl)prop-2-en-1-one], the IC50 in assay [1] is less than 0.01 µM. For the same compound, in assay [2], the EC50 was 0.01 to 0.1 µM. Consider `C=CC(=O)N1CCC[C@@H](Nc2nc(Nc3ccc4c(c3)CCNCC4)ncc2F)C1` [Compound I-57, (R)-1-(3-(5-Fluoro-2-(2,3,4,5-tetrahydro-1H-benzo[d]azepin-7-ylamino)pyrimidin-4-ylamino)piperidin-1-yl)prop-2-en-1-one], for which, in assay [1], the IC50 is less than 0.01 µM. In assay [2], the EC50 is 0.01 to 0.1 µM.

Consider `C=CC(=O)N1CCC[C@@H](Nc2nc(Nc3cc(F)c4c(c3)CN(C)C4)ncc2F)C1` [Compound I-37, (R)-1-(3-(5-Fluoro-2-(7-fluoro-2-methylisoindolin-5-ylamino)pyrimidin-4-ylamino)piperidin-1-yl)prop-2-en-1-one], for which, in assay [1], the half-maximal inhibitory concentration (IC50) was less than 0.01 µM. The EC50 in assay [2] was in the range of 0.101 to 1 µM. Take `C=CC(=O)N1CCC[C@@H](Nc2nc(Nc3ccc4c(c3)CN(CC3CCOCC3)C4)ncc2F)C1` [Compound I-11, (R)-1-(3-(5-Fluoro-2-(2-((tetrahydro-2H-pyran-4-yl)methyl)isoindolin-5-ylamino)pyrimidin-4-ylamino)piperidin-1-yl)prop-2-en-1-one]: in assay [1], the IC50 was less than 0.01 µM. Further, in assay [2], the concentration giving a half-maximal response (EC50) is less than 0.01 µM. As to `C=CC(=O)N1CCC[C@@H](Nc2nc(Nc3ccc4c(c3)CN(C3CCOCC3)C4)ncc2F)C1` [Compound I-12, (R)-1-(3-((5-Fluoro-2-((2-(tetrahydro-2H-pyran-4-yl)isoindolin-5-yl)amino)-pyrimidin-4-yl)amino)piperidin-1-yl)prop-2-en-1-one], in assay [1], the IC50 was less than 0.01 µM. Further, in assay [2], the EC50 was 0.01 to 0.1 µM.

`C=CC(=O)N1CCC[C@@H](Nc2nc(Nc3ccc4c(c3)CCN(C(C)(C)C)C4)ncc2F)C1` [Compound I-45, (R)-1-(3-((2-((2-(tert-Butyl)-1,2,3,4-tetrahydroisoquinolin-6-yl)amino)-5-fluoropyrimidin-4-yl)amino)piperidin-1-yl)prop-2-en-1-one]: the IC50 in assay [1] is less than 0.01 µM. Besides, in assay [2], the EC50 was less than 0.01 µM.

With `C=CC(=O)N1CCC[C@@H](Nc2nc(Nc3ccc4c(c3)CCN(C3CC3)CC4)ncc2F)C1` [Compound I-60, (R)-1-(3-(2-(3-Cyclopropyl-2,3,4,5-tetrahydro-1H-benzo[d]azepin-7-ylamino)-5-fluoropyrimidin-4-ylamino)piperidin-1-yl)prop-2-en-1-one], in assay [1], the IC50 was less than 0.01 µM. Further, the EC50 in assay [2] is 0.01 to 0.1 µM. Turning to `C=CC(=O)N1CC2(CC(Nc3nc(Nc4ccc5c(c4)CN(C)C5)ncc3F)C2)C1` [Compound I-26, 1-(6-((5-Fluoro-2-((2-methylisoindolin-5-yl)amino)pyrimidin-4-yl)amino)-2-azaspiro[3.3]heptan-2-yl)prop-2-en-1-one], the IC50 in assay [1] is less than 0.01 µM. In addition, the EC50 in assay [2] was less than 0.01 µM.

Turning to `C=CC(=O)N1CCC[C@@H](Nc2nc(Nc3ccc4c(c3)CN(C(C)=O)C4)ncc2F)C1` [Compound I-3, (R)-1-(3-((2-((2-Acetylisoindolin-5-yl)amino)-5-fluoropyrimidin-4-yl)amino)-piperidin-1-yl)prop-2-en-1-one], the IC50 in assay [1] is less than 0.01 µM. In assay [2], the EC50 was in the range of 0.101 to 1 µM. For `C#CCN1Cc2ccc(Nc3ncc(F)c(N[C@@H]4CCCN(C(=O)C=C)C4)n3)cc2C1` [Compound I-67, (R)-1-(3-((5-Fluoro-2-((2-(prop-2-yn-1-yl)isoindolin-5-yl)amino)pyrimidin-4-yl)amino)piperidin-1-yl)prop-2-en-1-one] the same measures were less than 0.01 µM and 0.01 to 0.1 µM. In the case of `C=CC(=O)N1CCC[C@@H](Nc2nc(Nc3ccc4c(c3)CN(C3COC3)C4)ncc2F)C1` [Compound I-13, (R)-1-(3-((5-Fluoro-2-((2-(oxetan-3-yl)isoindolin-5-yl)amino)pyrimidin-4-yl)amino)piperidin-1-yl)prop-2-en-1-one], in assay [1], the IC50 was less than 0.01 µM. Further, the EC50 in assay [2] lay in the range of 0.01 to 0.1 µM. With `C=CC(=O)N1CCC[C@@H](Nc2nc(Nc3ccc4c(c3)C(C)(C)N(C)C4(C)C)ncc2F)C1` [Compound I-41, (R)-1-(3-(5-Fluoro-2-(1,1,2,3,3-pentamethylisoindolin-5-ylamino)pyrimidin-4-ylamino)piperidin-1-yl)prop-2-en-1-one], the IC50 in assay [1] was less than 0.01 µM. Also, the concentration giving a half-maximal response (EC50) in assay [2] is 0.01 to 0.1 µM. For `C=CC(=O)N1CCC[C@@H](Nc2nc(Nc3ccc4c(c3)CCN(C(C)C)C4)ncc2F)C1` [Compound I-29, (R)-1-(3-((5-Fluoro-2-((2-isopropyl-1,2,3,4-tetrahydroisoquinolin-6-yl)amino)-pyrimidin-4-yl)amino)piperidin-1-yl)prop-2-en-1-one], the IC50 in assay [1] is less than 0.01 µM. Further, the EC50 in assay [2] is 0.01 to 0.1 µM. As for `C=CC(=O)N1CCC[C@@H](Nc2nc(Nc3ccc4c(c3)CN(CCF)C4)ncc2F)C1` [Compound I-39, (R)-1-(3-((5-Fluoro-2-((2-(2-fluoroethyl)isoindolin-5-yl)amino)pyrimidin-4-yl)amino)piperidin-1-yl)prop-2-en-1-one], in assay [1], the IC50 was less than 0.01 µM. The EC50 in assay [2] was 0.01 to 0.1 µM. Turning to `C=CC(=O)N1CCC[C@@H](Nc2nc(Nc3ccc4c(c3)CN(C(C)C)C4)ncc2F)C1` [Compound I-17, (R)-1-(3-((5-Fluoro-2-((2-isopropylisoindolin-5-yl)amino)pyrimidin-4-yl)amino)piperidin-1-yl)prop-2-en-1-one], in assay [1], the IC50 is less than 0.01 µM. Besides, the concentration giving a half-maximal response (EC50) in assay [2] was less than 0.01 µM.

On to `C=CC(=O)N1CCC[C@@H](Nc2nc(Nc3ccc4c(c3)CCCN(C)C4)ncc2F)C1` [Compound I-38, (R)-1-(3-((5-Fluoro-2-((2-methyl-2,3,4,5-tetrahydro-1H-benzo[c]azepin-7-yl)amino)pyrimidin-4-yl)amino)piperidin-1-yl)prop-2-en-1-one], for which, in assay [1], the IC50 was less than 0.01 µM. The EC50 in assay [2] is less than 0.01 µM.

With `C=CC(=O)N1CCC[C@@H](Nc2nc(Nc3ccc4c(c3)C(=O)N(C)C4)ncc2F)C1` [Compound I-62], the IC50 in assay [1] is less than 0.01 µM. In addition, the EC50 in assay [2] lay within 0.101 to 1 µM. For the compound `C=CC(=O)N1CC2CC(Nc3nc(Nc4ccc5c(c4)CN(C)C5)ncc3F)C1C2` (stereo not shown) [Compound I-66, 1-(6-((5-fluoro-2-((2-methylisoindolin-5-yl)amino)pyrimidin-4-yl)amino)-2-azabicyclo[2.2.1]heptan-2-yl)prop-2-en-1-one], the IC50 in assay [1] lay in the range of 0.101 to 1 µM.
